Test results: ChEMBL document CHEMBL5360658, “Discovery of MK-8768, a Potent and Selective mGluR2 Negative Allosteric Modulator” (ACS Med Chem Lett, 2023)
≈ marks a conversion by molar mass, not a printed value.

What was measured:
[1] = Solubility of the compound at pH 7; assay type: physicochemical; conditions: buffer
[2] = Oral bioavailability in rat; assay type: ADME, organism-based; conditions: in vivo
[3] = molecular target: T1, Nuclear receptor subfamily 1 group I member 2 (Homo sapiens, UniProt O75469); assay: Agonist activity at PXR (unknown origin)
T1 sequence (O75469 whole entry): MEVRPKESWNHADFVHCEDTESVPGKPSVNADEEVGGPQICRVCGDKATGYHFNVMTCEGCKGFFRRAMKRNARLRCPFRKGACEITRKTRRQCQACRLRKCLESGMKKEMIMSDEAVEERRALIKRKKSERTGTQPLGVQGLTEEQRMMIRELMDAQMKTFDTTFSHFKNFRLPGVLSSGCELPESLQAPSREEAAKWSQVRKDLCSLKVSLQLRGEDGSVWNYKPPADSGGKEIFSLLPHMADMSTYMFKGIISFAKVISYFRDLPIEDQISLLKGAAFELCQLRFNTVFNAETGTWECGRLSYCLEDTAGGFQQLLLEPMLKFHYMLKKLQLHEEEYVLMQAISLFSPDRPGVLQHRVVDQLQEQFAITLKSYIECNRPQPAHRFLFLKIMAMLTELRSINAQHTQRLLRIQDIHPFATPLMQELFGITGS

[4] = Apparent permeability in […] LLC-MDR1 cell; assay type: ADME, cell-based; conditions: LLC-PK1
[5] = molecular target: Voltage-gated inwardly rectifying potassium channel KCNH2 (Homo sapiens, UniProt Q12809); assay: Displacement of [35S]-MK-499 from hERG expressed in HEK293 cells […]; assay type: toxicity, cell-based
PXR (NR1I2) = molecular target: T2, PXR (NR1I2) (Homo sapiens, UniProt O75469); assay: Agonist activity at PXR (unknown origin) assessed as maximal efficacy at 30 uM
T2 sequence (O75469 whole entry): T1 sequence (O75469 whole entry)

[6] = molecular target: Metabotropic glutamate receptor 3 (Homo sapiens, UniProt Q14832); assay: Negative allosteric modulation at mGluR3 receptor (unknown origin) assessed as effect on intracellular calcium flux measured after 5 min by Fluo-4AM dye based FLIPR analysis; assay type: functional, cell-based
[7] = molecular target: Sodium channel protein type 5 subunit alpha (Homo sapiens, UniProt Q14524); assay: Inhibition of NaV 1.5 channel (unknown origin) by automated patch-clamp assay
[8] = molecular target: Voltage-dependent L-type calcium channel subunit alpha-1C (Homo sapiens, UniProt Q13936); assay: Inhibition of Cav1.2 (unknown origin)
[9] = Oral bioavailability in rat at 20 mg/kg; assay type: ADME, organism-based; conditions: in vivo
[10] = molecular target: Metabotropic glutamate receptor 2 (Homo sapiens, UniProt Q14416); assay: Negative allosteric modulation at human mGluR2 receptor stably expressed in DHFR null CHO cells co-expressing Galpha16 assessed as effect on intracellular calcium flux measured after 5 min by Fluo-4AM dye based FLIPR analysis; assay type: functional, cell-based
P-gp (ABCB1) = P-gp (ABCB1) (Rattus norvegicus, UniProt P43245); assay: Substrate activity at rat P-gp […] in […] LLC-MDR1 cells assessed as efflux ratio of apparent permeability across basolateral to apical over apical to basolateral side; assay type: ADME, cell-based, LLC-MDR1 cell; conditions: LLC-PK1
P-gp (ABCB1), sequence (P43245 whole entry): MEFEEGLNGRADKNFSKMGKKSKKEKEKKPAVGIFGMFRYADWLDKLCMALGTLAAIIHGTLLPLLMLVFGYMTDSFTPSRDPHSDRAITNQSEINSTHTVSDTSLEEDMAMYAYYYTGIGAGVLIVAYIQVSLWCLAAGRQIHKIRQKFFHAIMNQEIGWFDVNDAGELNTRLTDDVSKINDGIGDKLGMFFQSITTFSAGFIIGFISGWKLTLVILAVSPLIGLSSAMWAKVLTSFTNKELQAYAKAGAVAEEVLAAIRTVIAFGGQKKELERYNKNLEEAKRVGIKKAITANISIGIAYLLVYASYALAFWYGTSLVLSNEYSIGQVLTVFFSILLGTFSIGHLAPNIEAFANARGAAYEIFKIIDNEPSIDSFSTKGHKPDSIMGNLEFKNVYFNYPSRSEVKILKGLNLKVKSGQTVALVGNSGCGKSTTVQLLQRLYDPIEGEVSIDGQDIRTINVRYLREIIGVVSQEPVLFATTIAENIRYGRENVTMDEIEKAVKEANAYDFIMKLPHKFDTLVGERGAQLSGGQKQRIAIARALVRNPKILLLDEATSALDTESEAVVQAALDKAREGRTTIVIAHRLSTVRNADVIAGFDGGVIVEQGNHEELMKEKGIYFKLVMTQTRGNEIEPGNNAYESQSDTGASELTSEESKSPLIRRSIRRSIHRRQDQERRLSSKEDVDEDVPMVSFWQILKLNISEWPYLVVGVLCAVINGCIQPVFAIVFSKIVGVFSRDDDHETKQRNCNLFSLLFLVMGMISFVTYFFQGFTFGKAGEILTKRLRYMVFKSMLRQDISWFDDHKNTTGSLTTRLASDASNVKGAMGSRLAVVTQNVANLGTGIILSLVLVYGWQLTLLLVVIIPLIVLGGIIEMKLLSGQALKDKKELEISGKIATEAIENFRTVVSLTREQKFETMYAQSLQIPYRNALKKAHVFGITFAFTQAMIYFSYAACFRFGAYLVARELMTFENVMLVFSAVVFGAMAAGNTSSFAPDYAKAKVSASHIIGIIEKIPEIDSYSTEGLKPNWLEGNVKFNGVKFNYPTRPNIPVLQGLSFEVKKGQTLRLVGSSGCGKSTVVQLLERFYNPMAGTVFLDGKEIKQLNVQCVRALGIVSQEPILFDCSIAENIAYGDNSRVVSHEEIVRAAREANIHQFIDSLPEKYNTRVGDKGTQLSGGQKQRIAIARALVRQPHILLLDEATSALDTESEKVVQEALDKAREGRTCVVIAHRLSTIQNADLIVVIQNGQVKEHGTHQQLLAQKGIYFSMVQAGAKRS

Voltage-gated inwardly rectifying potassium channel KCNH2, sequence (Q12809 whole entry): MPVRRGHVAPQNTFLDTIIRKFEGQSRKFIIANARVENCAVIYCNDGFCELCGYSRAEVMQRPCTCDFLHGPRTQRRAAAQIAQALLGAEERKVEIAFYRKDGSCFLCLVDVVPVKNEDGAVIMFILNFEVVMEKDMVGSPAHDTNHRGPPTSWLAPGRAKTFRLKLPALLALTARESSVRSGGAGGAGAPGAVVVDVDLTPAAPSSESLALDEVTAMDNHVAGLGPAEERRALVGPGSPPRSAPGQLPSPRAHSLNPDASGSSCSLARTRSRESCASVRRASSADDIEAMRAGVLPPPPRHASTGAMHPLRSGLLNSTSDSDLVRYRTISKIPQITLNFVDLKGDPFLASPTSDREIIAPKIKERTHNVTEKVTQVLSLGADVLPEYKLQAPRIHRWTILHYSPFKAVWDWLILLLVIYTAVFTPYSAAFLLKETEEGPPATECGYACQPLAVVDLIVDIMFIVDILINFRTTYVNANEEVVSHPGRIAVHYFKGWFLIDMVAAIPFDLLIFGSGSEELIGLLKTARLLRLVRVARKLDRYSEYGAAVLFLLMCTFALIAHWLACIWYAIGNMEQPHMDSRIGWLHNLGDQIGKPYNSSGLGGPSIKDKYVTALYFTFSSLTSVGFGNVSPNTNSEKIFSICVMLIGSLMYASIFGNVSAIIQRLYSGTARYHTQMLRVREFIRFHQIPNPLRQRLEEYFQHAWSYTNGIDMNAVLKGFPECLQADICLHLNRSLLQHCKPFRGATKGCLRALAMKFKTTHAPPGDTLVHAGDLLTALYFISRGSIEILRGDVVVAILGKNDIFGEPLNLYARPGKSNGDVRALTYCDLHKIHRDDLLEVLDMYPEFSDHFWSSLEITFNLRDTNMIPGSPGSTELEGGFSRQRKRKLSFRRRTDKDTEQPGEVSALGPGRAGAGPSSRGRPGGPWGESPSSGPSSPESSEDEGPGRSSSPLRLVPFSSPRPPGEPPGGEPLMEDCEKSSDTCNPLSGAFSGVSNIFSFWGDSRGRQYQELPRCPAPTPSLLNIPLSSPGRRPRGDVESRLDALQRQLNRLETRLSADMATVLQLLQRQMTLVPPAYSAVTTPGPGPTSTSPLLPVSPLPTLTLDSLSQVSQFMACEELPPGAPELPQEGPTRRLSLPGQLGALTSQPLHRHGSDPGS
Metabotropic glutamate receptor 2, sequence (Q14416 whole entry): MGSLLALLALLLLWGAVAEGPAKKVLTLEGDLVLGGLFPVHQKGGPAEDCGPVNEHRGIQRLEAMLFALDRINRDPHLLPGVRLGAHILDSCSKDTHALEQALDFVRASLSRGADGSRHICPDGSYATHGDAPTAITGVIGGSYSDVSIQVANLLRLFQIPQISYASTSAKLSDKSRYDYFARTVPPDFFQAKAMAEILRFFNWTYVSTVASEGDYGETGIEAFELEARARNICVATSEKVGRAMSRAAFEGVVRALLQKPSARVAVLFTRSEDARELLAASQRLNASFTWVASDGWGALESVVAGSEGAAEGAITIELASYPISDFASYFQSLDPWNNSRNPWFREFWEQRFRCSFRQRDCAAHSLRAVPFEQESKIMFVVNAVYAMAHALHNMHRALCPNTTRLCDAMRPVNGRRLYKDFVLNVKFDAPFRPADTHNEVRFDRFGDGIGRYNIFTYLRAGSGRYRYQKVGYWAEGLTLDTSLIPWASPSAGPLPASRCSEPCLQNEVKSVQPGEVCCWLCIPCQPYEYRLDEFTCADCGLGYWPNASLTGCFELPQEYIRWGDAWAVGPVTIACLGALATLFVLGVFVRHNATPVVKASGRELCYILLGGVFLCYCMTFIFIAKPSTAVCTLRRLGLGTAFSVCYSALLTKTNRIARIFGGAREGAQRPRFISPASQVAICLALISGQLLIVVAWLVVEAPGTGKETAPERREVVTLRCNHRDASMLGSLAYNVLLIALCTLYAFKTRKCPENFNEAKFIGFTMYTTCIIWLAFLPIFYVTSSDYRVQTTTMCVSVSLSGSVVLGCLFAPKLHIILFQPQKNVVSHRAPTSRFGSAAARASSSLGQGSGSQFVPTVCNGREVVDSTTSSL
Metabotropic glutamate receptor 3, sequence (Q14832 whole entry): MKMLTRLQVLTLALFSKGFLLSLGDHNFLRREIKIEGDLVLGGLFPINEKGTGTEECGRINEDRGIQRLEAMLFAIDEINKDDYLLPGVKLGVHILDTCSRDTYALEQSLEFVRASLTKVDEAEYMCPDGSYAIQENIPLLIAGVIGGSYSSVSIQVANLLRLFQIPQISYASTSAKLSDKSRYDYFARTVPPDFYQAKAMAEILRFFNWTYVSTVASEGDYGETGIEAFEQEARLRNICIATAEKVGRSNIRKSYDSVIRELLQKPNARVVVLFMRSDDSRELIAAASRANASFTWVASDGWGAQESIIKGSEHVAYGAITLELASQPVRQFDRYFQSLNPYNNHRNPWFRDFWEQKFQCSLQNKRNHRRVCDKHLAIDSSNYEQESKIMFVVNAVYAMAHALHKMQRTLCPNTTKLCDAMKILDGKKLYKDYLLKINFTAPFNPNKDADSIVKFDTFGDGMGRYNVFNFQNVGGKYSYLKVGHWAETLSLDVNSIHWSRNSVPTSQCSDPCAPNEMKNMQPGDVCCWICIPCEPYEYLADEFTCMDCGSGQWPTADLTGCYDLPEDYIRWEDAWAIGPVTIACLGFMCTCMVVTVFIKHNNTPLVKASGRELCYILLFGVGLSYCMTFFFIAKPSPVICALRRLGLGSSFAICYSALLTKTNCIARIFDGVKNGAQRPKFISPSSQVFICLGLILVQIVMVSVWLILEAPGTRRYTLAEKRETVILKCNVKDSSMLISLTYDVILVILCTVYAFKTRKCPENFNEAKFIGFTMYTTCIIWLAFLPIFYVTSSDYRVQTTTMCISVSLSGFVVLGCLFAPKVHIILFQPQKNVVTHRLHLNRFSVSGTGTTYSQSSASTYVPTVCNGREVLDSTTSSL

Structure (SMILES)	solubility ([1]; read-out: solubility) [µM]	EC50 [3] [µM]	Papp [4] [×10⁻⁶ cm/s]	IC50 [5] [µM]	Emax at 30 µM (PXR (NR1I2)) [%]	further results
NC(=O)c1cc(-c2ccc(F)cc2)c2ccc(CN3C(=O)CCC3=O)cc2n1	–	–	–	–	–	solubility [1]: 4 µM (≈ 1.51 µg/mL); bioavailability [2]: 100%
NC(=O)c1cc(-c2ccc(F)cc2)c2ccc(CCc3cncnc3)cc2n1	< 1	> 30	31	> 60	47	–
NC(=O)c1cc(-c2ccc(F)cc2)c2ccc(CN3CCOC3=O)cc2n1	127 (≈ 46.4 µg/mL)	9.7	36	14	95	–
Cn1cc(-c2cc(C(N)=O)nc3cc(CN4CCO[C@@H](C(F)(F)F)C4)ccc23)cn1	142 (≈ 59.6 µg/mL)	–	29	> 60	–	IC50 [6]: 7.8 µM; IC50 [7]: > 30 µM; IC50 [8]: 22 µM; bioavailability [9]: 100%
NC(=O)c1cc(N2CCOCC2)c2ccc(CN3C(=O)CCC3=O)cc2n1	157 (≈ 57.8 µg/mL)	–	35	17	–	–
CN(C)C(=O)C(C)(C)c1ccc2c(-c3ccc(F)cc3)cc(C(N)=O)nc2c1	< 2	3.5	38	40	110	–
Cn1ccc(CCc2ccc3c(-c4ccc(F)cc4)cc(C(N)=O)nc3c2)n1	< 1	9.2	25	2.9	97	–
CN1CC=C(c2cc(C(N)=O)nc3cc(CN4C(=O)CCC4=O)ccc23)CC1	203 (≈ 76.8 µg/mL)	–	38	–	–	IC50 [10]: 4030 nM; efflux ratio (P-gp (ABCB1)): 19
Cc1ncc(-c2cc(C(N)=O)nc3cc(CN4C(=O)CCC4=O)ccc23)s1	64 (≈ 24.3 µg/mL)	6	–	> 60	137	–
CCn1cc(-c2cc(C(N)=O)nc3cc(CN4C(=O)CCC4=O)ccc23)cn1	150 (≈ 56.6 µg/mL)	–	24	27	–	–
Cn1cc(Cc2ccc3c(-c4ccc(F)cc4)cc(C(N)=O)nc3c2)cn1	4 (≈ 1.44 µg/mL)	> 30	31	3.5	21	–
Cc1cc(NCc2ccc3c(-c4ccc(F)cc4)cc(C(N)=O)nc3c2)no1	3 (≈ 1.13 µg/mL)	> 30	30	3.3	49	–
Cn1cc(-c2cc(C(N)=O)nc3cc(CN4C(=O)CCC4=O)ccc23)cn1	162 (≈ 58.9 µg/mL)	–	30	–	–	–
Cc1ncc(CCc2ccc3c(-c4cnn(C)c4)cc(C(N)=O)nc3c2)cn1	141 (≈ 52.5 µg/mL)	–	30	> 60	–	–
Cc1ncc(NCc2ccc3c(-c4ccc(F)cc4)cc(C(N)=O)nc3c2)cn1	7 (≈ 2.71 µg/mL)	> 30	31	6.2	1	–
CC(C)(C(=O)N1CCOCC1)c1ccc2c(-c3ccc(F)cc3)cc(C(N)=O)nc2c1	143 (≈ 60.3 µg/mL)	–	32	20.6	–	–
Cc1cnn(-c2cc(C(N)=O)nc3cc(CN4C(=O)CCC4=O)ccc23)c1	99 (≈ 36 µg/mL)	> 30	–	–	54	–
Cn1cc(Cc2ccc3c(-c4cnn(C)c4)cc(C(N)=O)nc3c2)cn1	105 (≈ 36.4 µg/mL)	–	36	> 60	–	–

Structure (SMILES)	solubility ([1]; read-out: solubility) [µM]	EC50 [3] [µM]	Papp [4] [×10⁻⁶ cm/s]	IC50 [5] [µM]	Emax at 30 µM (PXR (NR1I2)) [%]	further results
NC(=O)c1cc(-c2ccc(F)cc2)c2ccc(CNCC(F)(F)F)cc2n1	6 (≈ 2.26 µg/mL)	> 30	24	10.2	50	–
Cc1ccn(-c2cc(C(N)=O)nc3cc(CN4C(=O)CCC4=O)ccc23)n1	46 (≈ 16.7 µg/mL)	–	30	> 60	–	IC50 [10]: > 5000 nM; efflux ratio (P-gp (ABCB1)): 18
Cc1cnn(Cc2ccc3c(-c4ccc(F)cc4)cc(C(N)=O)nc3c2)c1	< 2	16.7	27	1.9	53	–
CC1CCN(c2cc(C(N)=O)nc3cc(CN4C(=O)CCC4=O)ccc23)CC1	< 2	–	–	–	–	–
NC(=O)c1cc(-c2ccc(F)cc2)c2ccc(CN3CCOC(C(F)(F)F)C3)cc2n1 (racemic)	2 (≈ 0.867 µg/mL)	–	24	5.5	–	–
NC(=O)c1cc(-c2ccc(F)cc2)c2ccc(CN3CCNC(C(F)(F)F)C3)cc2n1 (racemic)	105 (≈ 45.4 µg/mL)	–	27	11.2	–	–
CC1CC=C(c2cc(C(N)=O)nc3cc(CN4C(=O)CCC4=O)ccc23)CC1 (racemic)	< 1	0.6	33	27	115	–
CC1CN(Cc2ccc3c(-c4cnn(C)c4)cc(C(N)=O)nc3c2)CCO1 (racemic)	175 (≈ 64 µg/mL)	> 30	–	> 60	1	–
CC(C)C1CN(Cc2ccc3c(-c4cnn(C)c4)cc(C(N)=O)nc3c2)CCO1 (racemic)	142 (≈ 55.9 µg/mL)	29	34	23	51	IC50 [10]: 23 nM; efflux ratio (P-gp (ABCB1)): 1.3
COC1CC=C(c2cc(C(N)=O)nc3cc(CN4C(=O)CCC4=O)ccc23)CC1 (racemic)	125 (≈ 49.2 µg/mL)	–	32	> 60	–	–
Cn1cc(-c2cc(C(N)=O)nc3cc(CN4CCOC(C(F)F)C4)ccc23)cn1 (racemic)	193 (≈ 77.5 µg/mL)	–	–	–	–	IC50 [10]: 67 nM
NC(=O)c1cc(-c2ccc(F)cc2)c2ccc(C(N3CCOCC3)C(F)(F)F)cc2n1 (racemic)	< 2	–	28	11.2	–	IC50 [10]: 41 nM
CC1CN(Cc2ccc3c(-c4ccc(F)cc4)cc(C(N)=O)nc3c2)CCO1 (racemic)	103 (≈ 39.1 µg/mL)	> 30	–	5.5	26	–
Cn1cc(-c2cc(C(N)=O)nc3cc(CN4CCOC(C5CC5)C4)ccc23)cn1 (racemic)	175 (≈ 68.5 µg/mL)	–	29	51	–	IC50 [10]: 32 nM
Cn1cc(-c2cc(C(N)=O)nc3cc(CN4CCOC(C(F)(F)F)C4)ccc23)cn1 (racemic)	132 (≈ 55.4 µg/mL)	–	30	19	–	–
CC(c1ccc2c(-c3cnn(C)c3)cc(C(N)=O)nc2c1)c1cnn(CC(F)(F)F)c1 (racemic)	107 (≈ 45.8 µg/mL)	19	29	10	75	IC50 [10]: 11 nM; efflux ratio (P-gp (ABCB1)): 18
Cn1cc(-c2cc(C(N)=O)nc3cc(CN4CCNC(C(F)(F)F)C4)ccc23)cn1 (racemic)	175 (≈ 73.2 µg/mL)	–	29	> 20	–	IC50 [10]: 122 nM
